Assays:
AZD6738 = compound: C[C@@H]1COCCN1C2=NC(=NC(=C2)C3(CC3)[S@](=N)(=O)C)C4=C5C=CNC5=NC=C4 [AZD6738]; conditions: max 10 µM
Outline: (§1)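 Following 24 hours at 37°C and 5% CO2, cancer cell lines in 1536-well plates with 7.5 μl DMEM/F12 or RPMI and 10% FBS were dosed for 72 hours, final DMSO typically being 0.2%. CellTiter-Glo 2.0 luminescence, scaled between blank-well and DMSO-well means, gave the viability readout. Dose responses were fitted to a two-parameter logistic curve with a non-linear mixed effects model, and the single-agent IC50 was derived from this fit.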

AZD2811 = compound: CCN(CCO)CCCOc1ccc2c(Nc3cc(CC(=O)Nc4cccc(F)c4)[nH]n3)ncnc2c1 [AZD2811]; conditions: max 1 µM
Outline: as §1

AZD8186 = compound: C[C@@H](Nc1cc(F)cc(F)c1)c1cc(C(=O)N(C)C)cc2c(=O)cc(N3CCOCC3)oc12 [AZD8186]; conditions: max 3 µM
Outline: as §1

Olaparib = compound: O=C(c1cc(Cc2n[nH]c(=O)c3ccccc23)ccc1F)N1CCN(C(=O)C2CC2)CC1 [Olaparib]
Outline: as §1

Prexasertib = compound: COc1cccc(OCCCN)c1-c1cc(Nc2cnc(C#N)cn2)n[nH]1 [Prexasertib]; conditions: max 1 µM
Outline: as §1

AZD0156 = compound: CN(C)CCCOc1ccc(-c2ccc3ncc4c(c3c2)n(C2CCOCC2)c(=O)n4C)cn1 [AZD0156]; conditions: max 3 µM
Outline: as §1

Doxorubicin = compound: COc1cccc2c1C(=O)c1c(O)c3c(c(O)c1C2=O)C[C@@](O)(C(=O)CO)C[C@@H]3O[C@H]1C[C@H](N)[C@H](O)[C@H](C)O1 [Doxorubicin]; conditions: max 1 µM
Outline: as §1

AZD7648 = compound: Cc1cc2ncnn2cc1Nc1ncc2c(n1)n(C1CCOCC1)c(=O)n2C [AZD7648]; conditions: max 10 µM
Outline: as §1

AZD1775 = compound: C=CCn1c(=O)c2cnc(Nc3ccc(N4CCN(C)CC4)cc3)nc2n1-c1cccc(C(C)(C)O)n1 [AZD1775]; conditions: max 3 µM
Outline: as §1

Taselisib = compound: Cc1nc(-c2cn3c(n2)-c2ccc(-c4cnn(C(C)(C)C(N)=O)c4)cc2OCC3)n(C(C)C)n1 [Taselisib]; conditions: max 10 µM
Outline: as §1

SG3199 = compound: CC1=CN2[C@@H](C1)C=NC3=CC(=C(C=C3C2=O)OC)OCCCCCOC4=C(C=C5C(=C4)N=C[C@@H]6CC(=CN6C5=O)C)OC [SG3199]; conditions: max 0.001 µM
Outline: as §1

SN-38 = compound: CCc1c2c(nc3ccc(O)cc13)-c1cc3c(c(=O)n1C2)COC(=O)[C@]3(O)CC [SN-38]; conditions: max 0.3 µM
Outline: as §1

AZD4320 = compound: CN(CC[C@H](CSC1=CC=CC=C1)NC2=C(C=C(C=C2)S(=O)(=O)NC(=O)C3=CC=C(C=C3)N4CCC(CC4)[C@H](C5=CC=CC=C5C6=CC=C(C=C6)Cl)O)S(=O)(=O)C(F)(F)F)CCO [AZD4320]; conditions: max 1 µM
Outline: as §1

Venetoclax = compound: CC1(C)CCC(CN2CCN(c3ccc(C(=O)NS(=O)(=O)c4ccc(NCC5CCOCC5)c([N+](=O)[O-])c4)c(Oc4cnc5[nH]ccc5c4)c3)CC2)=C(c2ccc(Cl)cc2)C1 [Venetoclax]; conditions: max 1 µM
Outline: as §1

AZD5991 = compound: Cc1c2c(nn1C)CSCc1cc(n(C)n1)CSc1cc(c3ccccc3c1)OCCCc1c(C(=O)O)n(C)c3c-2c(Cl)ccc13 [AZD5991]; conditions: max 1 µM
Outline: as §1

Trametinib = compound: CC(=O)Nc1cccc(-n2c(=O)n(C3CC3)c(=O)c3c(Nc4ccc(I)cc4F)n(C)c(=O)c(C)c32)c1 [Trametinib]; conditions: max 1 µM
Outline: as §1

Alisertib = compound: COc1cc(Nc2ncc3c(n2)-c2ccc(Cl)cc2C(c2c(F)cccc2OC)=NC3)ccc1C(=O)O [Alisertib]; conditions: max 10 µM
Outline: as §1

Selumetinib = compound: Cn1cnc2c(F)c(Nc3ccc(Br)cc3Cl)c(C(=O)NOCCO)cc21 [Selumetinib]
Outline: as §1

Capivasertib = compound: C1CN(CCC1(C(=O)N[C@@H](CCO)C2=CC=C(C=C2)Cl)N)C3=NC=NC4=C3C=CN4 [Capivasertib]
Outline: as §1

Gefitinib = compound: COc1cc2ncnc(Nc3ccc(F)c(Cl)c3)c2cc1OCCCN1CCOCC1 [Gefitinib]; conditions: max 10 µM
Outline: as §1

Dasatinib = compound: CC1=C(C(=CC=C1)Cl)NC(=O)C2=CN=C(S2)NC3=CC(=NC(=N3)C)N4CCN(CC4)CCO [Dasatinib]; conditions: max 2 µM
Outline: as §1

Crizotinib = compound: C[C@@H](Oc1cc(-c2cnn(C3CCNCC3)c2)cnc1N)c1c(Cl)ccc(F)c1Cl [Crizotinib]; conditions: max 10 µM
Outline: as §1

Lapatinib = compound: CS(=O)(=O)CCNCc1ccc(-c2ccc3ncnc(Nc4ccc(OCc5cccc(F)c5)c(Cl)c4)c3c2)o1 [Lapatinib]; conditions: max 10 µM
Outline: as §1

AZD5153 = compound: COc1nnc2ccc(N3CCC(c4ccc(OCCN5CCN(C)C(=O)[C@H]5C)cc4)CC3)nn12 [AZD5153]; conditions: max 1 µM
Outline: as §1

Palbociclib = compound: CC(=O)c1c(C)c2cnc(Nc3ccc(N4CCNCC4)cn3)nc2n(C2CCCC2)c1=O [Palbociclib]; conditions: max 10 µM
Outline: as §1

Savolitinib = compound: C[C@@H](c1ccc2nccn2c1)n1nnc2ncc(-c3cnn(C)c3)nc21 [Savolitinib]; conditions: max 1 µM
Outline: as §1

AZD1390 = compound: CC(C)n1c(=O)n(C)c2cnc3cc(F)c(-c4ccc(OCCCN5CCCCC5)nc4)cc3c21 [AZD1390]; conditions: max 0.3 µM
Outline: as §1

Cell Line	IC50, cell viability 72 h (AZD6738) [nM]	IC50, cell viability 72 h (AZD2811) [nM]	IC50, cell viability 72 h (AZD8186) [nM]	IC50, cell viability 72 h (Olaparib; max 10 µM) [µM]	IC50, cell viability 72 h (Prexasertib) [nM]	IC50, cell viability 72 h (AZD0156) [nM]	IC50, cell viability 72 h (Doxorubicin) [nM]	IC50, cell viability 72 h (AZD7648) [µM]	IC50, cell viability 72 h (AZD1775) [nM]	IC50, cell viability 72 h (Taselisib) [µM]	IC50, cell viability 72 h (SG3199) [nM]	IC50, cell viability 72 h (SN-38) [nM]	IC50, cell viability 72 h (AZD4320) [nM]	IC50, cell viability 72 h (Venetoclax) [nM]	IC50, cell viability 72 h (AZD5991) [nM]	IC50, cell viability 72 h (Trametinib) [nM]	IC50, cell viability 72 h (Alisertib) [nM]	IC50, cell viability 72 h (Selumetinib; max 3 µM) [nM]	IC50, cell viability 72 h (Capivasertib; max 3 µM) [µM]	IC50, cell viability 72 h (Gefitinib) [µM]	IC50, cell viability 72 h (Dasatinib) [nM]	IC50, cell viability 72 h (Crizotinib) [nM]	IC50, cell viability 72 h (Lapatinib) [µM]	IC50, cell viability 72 h (AZD5153) [nM]	IC50, cell viability 72 h (Palbociclib) [µM]	IC50, cell viability 72 h (Selumetinib; max 10 µM) [nM]	IC50, cell viability 72 h (Savolitinib) [nM]	IC50, cell viability 72 h (Capivasertib; max 10 µM) [µM]	IC50, cell viability 72 h (AZD1390) [nM]	IC50, cell viability 72 h (Olaparib; max 3 µM) [µM]
NCI-H847 (Small Cell Lung Carcinoma)	901	58.4	1950	6.86	15.1	> 3000	281	5.2	143	2.33	> 1	16	15.6	> 1000	665	> 1000	10.1	> 3000	> 3											
KCL-22 (Chronic Myelogenous Leukemia)	927	> 1000	> 3000	> 10	13.8	> 3000	335	> 10	525	> 10	> 1	37.9	> 1000	> 1000	369	915	8160			> 10	< 2	2010	> 10	273	> 10	> 10000	> 1000	> 10	> 300	
CHP-212 (Neuroblastoma)	1830	169	> 3000	> 10	51.5	> 3000	254	> 10	221	1.08	> 1	17.5	> 1000	> 1000	257	< 1	64.3			> 10	59.6	2070	> 10	59.2	3.36	12	> 1000	> 10	> 300	
KYSE-180 (Esophageal Squamous Cell Carcinoma)	5360	> 1000	> 3000	> 10	22.3	> 3000	> 1000	> 10	440	4.52	> 1	> 300	> 1000	> 1000	642	> 1000	> 10000			> 10	1730	> 10000	> 10	> 1000	> 10	> 10000	> 1000	> 10	> 300	
MEL-JUSO (Melanoma)	> 10000	> 1000	> 3000	> 10	125	> 3000	> 1000	> 10	> 3000	> 10	> 1	> 300	> 1000	> 1000	> 1000	430	> 10000			> 10	> 2000	> 10000	> 10	> 1000	> 10	> 10000	> 1000	> 10	> 300	
HL-60 (Acute Myeloid Leukemia)	7320	30.6	> 3000	> 10	16.6	> 3000	159	> 10	1670	> 10	> 1	6.04	32.7	80.3	35.7	12.4	407			> 10	> 2000	5820	> 10	37	> 10	642	> 1000	> 10	> 300	
KM12 (Colorectal Carcinoma)	5540	> 1000	> 3000	> 10	66.6	> 3000	357	> 10	454	7.18	> 1	90.8	> 1000	> 1000	> 1000	35.6	1110			> 10	> 2000	271	> 10	287	1.17	1300	> 1000	2.28	> 300	
P12-ICHIKAWA (T-Lymphoblastic Leukemia)	1020	15.4	> 3000		17.3	> 3000		> 10	262	> 10		1.61	37.3	> 1000	252	> 1000	38.1			> 10	> 2000	2230	> 10	89.1	1.6	> 10000	> 1000	3.17	> 300	> 3

Source: the supplement of paper PMC11061612
